Experimental data as given in patent publication US10428083B2, “Heterocyclylmethyl-thienouracile as antagonists of the adenosine-A2B-receptor” (BAYER PHARMA AKTIENGESELLSCHAFT, priority 2015, dated 2019).

Target: human adenosine A2b receptor (Homo sapiens (Human), UniProt P29275)
Test: Cellular in vitro reporter gene test for A2b receptor activity (CHO-K1, CRE-luciferase, NECA stimulation)
Format: cell-based
Conditions: recombinant CHO-K1 cell line, CRE-luciferase reporter, antagonism of EC50 concentration of NECA; in some cases means of several determinations, rounded to two significant figures; read-out: A2b receptor IC50
Method in brief: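 CHO-K1 cells with CRE-driven luciferase; antagonists co-incubated with NECA at its EC50, determined in a pre-experiment on each test day. Luciferase read by luminescence 3 h after NECA addition.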

Chain of human adenosine A2b receptor (P29275 whole entry): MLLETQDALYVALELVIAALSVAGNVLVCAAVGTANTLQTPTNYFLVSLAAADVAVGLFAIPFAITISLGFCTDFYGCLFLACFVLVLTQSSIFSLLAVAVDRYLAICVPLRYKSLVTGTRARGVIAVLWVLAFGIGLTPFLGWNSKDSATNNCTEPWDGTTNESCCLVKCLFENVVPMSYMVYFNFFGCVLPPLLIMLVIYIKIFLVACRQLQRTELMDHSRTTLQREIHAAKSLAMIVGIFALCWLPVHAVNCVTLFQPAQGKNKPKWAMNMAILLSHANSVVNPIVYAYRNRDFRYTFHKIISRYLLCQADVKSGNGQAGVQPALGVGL

IC50	Structure (SMILES)
19 nM	COCCn1c(=O)c2c(C)c(CN3CCNC3=NC#N)sc2n(CCOC)c1=O [Example 363, [1-{[1,3-Bis(2-methoxyethyl)-5-methyl-2,4-dioxo-1,2,3,4-tetrahydrothieno[2,3-d]pyrimidin-6-yl]methyl}imidazolidin-2-ylidene]cyanamide]
2 nM	CCn1c(=O)c2c(C)c(CN3CCNC3=NC(=O)OC)sc2n(CCC(F)(F)F)c1=O [Example 370, Methyl [1-{[3-ethyl-5-methyl-2,4-dioxo-1-(3,3,3-trifluoropropyl)-1,2,3,4-tetrahydrothieno[2,3-d]pyrimidin-6-yl]methyl}imidazolidin-2-ylidene]carbamate]
3.4 nM	COC(=O)N=C1NCCN1Cc1sc2c(c1C)c(=O)n(C(C)C)c(=O)n2CCC(F)(F)F [Example 377, Methyl [1-{[3-isopropyl-5-methyl-2,4-dioxo-1-(3,3,3-trifluoropropyl)-1,2,3,4-tetrahydrothieno[2,3-d]pyrimidin-6-yl]methyl}imidazolidin-2-ylidene]carbamate]
3.1 nM	COCCn1c(=O)n(C(C)C)c(=O)c2c(C)c(CN3CCNC3=NC(=O)OC)sc21 [Example 378, Methyl [1-{[3-isopropyl-1-(2-methoxyethyl)-5-methyl-2,4-dioxo-1,2,3,4-tetrahydrothieno[2,3-d]pyrimidin-6-yl]methyl}imidazolidin-2-ylidene]carbamate]
4.1 nM	COC(=O)N=C1NCCN1Cc1sc2c(c1C)c(=O)n(CC(F)(F)F)c(=O)n2CCC(F)(F)F [Example 381, Methyl [1-{[5-methyl-2,4-dioxo-3-(2,2,2-trifluoroethyl)-1-(3,3,3-trifluoropropyl)-1,2,3,4-tetrahydrothieno[2,3-d]pyrimidin-6-yl]methyl}imidazolidin-2-ylidene]carbamate]
6.8 nM	COCCn1c(=O)n(CC(F)(F)F)c(=O)c2c(C)c(CN3CCNC3=NC(=O)OC)sc21 [Example 382, Methyl [1-{[1-(2-methoxyethyl)-5-methyl-2,4-dioxo-3-(2,2,2-trifluoroethyl)-1,2,3,4-tetrahydrothieno[2,3-d]pyrimidin-6-yl]methyl}imidazolidin-2-ylidene]carbamate]
4.7 nM	COCCn1c(=O)c2c(C)c(CN3CCNC3=NC(=O)OC)sc2n(CCC(F)(F)F)c1=O [Example 385, Methyl [1-{[3-(2-methoxyethyl)-5-methyl-2,4-dioxo-1-(3,3,3-trifluoropropyl)-1,2,3,4-tetrahydrothieno[2,3-d]pyrimidin-6-yl]methyl}imidazolidin-2-ylidene]carbamate]
16 nM	COCCn1c(=O)c2c(C)c(CN3CCNC3=NC(=O)OC)sc2n(CCOC)c1=O [Example 386, Methyl [1-{[1,3-bis(2-methoxyethyl)-5-methyl-2,4-dioxo-1,2,3,4-tetrahydrothieno[2,3-d]pyrimidin-6-yl]methyl}imidazolidin-2-ylidene]carbamate]
45 nM	CCn1c(=O)c2c(C)c(CN3CCNC(=O)C3=O)sc2n(CF)c1=O [Example 393, 6-[(2,3-Dioxopiperazin-1-yl)methyl]-3-ethyl-1-(fluoromethyl)-5-methylthieno[2,3-d]pyrimidine-2,4(1H,3H)-dione]
3.2 nM	CCn1c(=O)c2c(C)c(CN3CCNC(=O)C3=O)sc2n(CCC(F)(F)F)c1=O [Example 394, 6-[(2,3-Dioxopiperazin-1-yl)methyl]-3-ethyl-5-methyl-1-(3,3,3-trifluoropropyl)thieno[2,3-d]pyrimidine-2,4(1H,3H)-dione]
94 nM	CCn1c(=O)c2c(C)c(CN3CCNC(=O)C3=O)sc2n(CCOC2CCCC2)c1=O [Example 395, 1-[2-(Cyclopentyloxy)ethyl]-6-[(2,3-dioxopiperazin-1-yl)methyl]-3-ethyl-5-methylthieno[2,3-d]pyrimidine-2,4(1H,3H)-dione]
93 nM	CCn1c(=O)c2c(C)c(CN3CCNC(=O)C3=O)sc2n(CCCOC)c1=O [Example 396, 6-[(2,3-Dioxopiperazin-1-yl)methyl]-3-ethyl-1-(3-methoxypropyl)-5-methylthieno[2,3-d]pyrimidine-2,4(1H,3H)-dione]
35 nM	CCOCCn1c(=O)c2c(C)c(CN3CCNC(=O)C3=O)sc2n(CCC(F)(F)F)c1=O [Example 403, 6-[(2,3-Dioxopiperazin-1-yl)methyl]-3-(2-ethoxyethyl)-5-methyl-1-(3,3,3-trifluoropropyl)thieno[2,3-d]pyrimidine-2,4(1H,3H)-dione]
120 nM	CCOCCn1c(=O)c2c(C)c(CN3CCNC(=O)C3=O)sc2n(CCOC)c1=O [Example 404, 6-[(2,3-Dioxopiperazin-1-yl)methyl]-3-(2-ethoxyethyl)-1-(2-methoxyethyl)-5-methylthieno[2,3-d]pyrimidine-2,4(1H,3H)-dione]
30 nM	CCOCCn1c(=O)c2c(C)c(CN3CCNC3=S)sc2n(CCCF)c1=O [Example 405, 3-(2-Ethoxyethyl)-1-(3-fluoropropyl)-5-methyl-6-[(2-thioxoimidazolidin-1-yl)methyl]thieno[2,3-d]pyrimidine-2,4(1H,3H)-dione]
14 nM	Cc1c(CN2CCNC2=O)sc2c1c(=O)n(C(C)C(F)(F)F)c(=O)n2CCC(F)(F)F (centres unmarked) [Example 409, 5-Methyl-6-[(2-oxoimidazolidin-1-yl)methyl]-3-(t1,1,1-trifluoropropan-2-yl)-1-(3,3,3-trifluoropropyl)thieno[2,3-d]pyrimidine-2,4(1H,3H)-dione]
53 nM	CCOCCn1c(=O)c2c(C)c(CN3CCNC3=O)sc2n(CCCF)c1=O [Example 411, 3-(2-Ethoxyethyl)-1-(3-fluoropropyl)-5-methyl-6-[(2-oxoimidazolidin-1-yl)methyl]thieno[2,3-d]pyrimidine-2,4(1H,3H)-dione]
9 nM	[2H]C([2H])(c1sc2c(c1C)c(=O)n(CC)c(=O)n2CCOC)N1CCNC1=O [Example 415, 3-Ethyl-1-(2-methoxyethyl)-5-methyl-6-[(2-oxoimidazolidin-1-yl)(dideutero)methyl]thieno[2,3-d]pyrimidine-2,4(1H,3H)-dione]
170 nM	Cc1c(Cn2nc[nH]c2=O)sc2c1c(=O)n(C(C)C)c(=O)n2CF [Example 422, 1-(Fluoromethyl)-3-isopropyl-5-methyl-6-[(5-oxo-4,5-dihydro-1H-1,2,4-triazol-1-yl)methyl]thieno[2,3-d]pyrimidine-2,4(1H,3H)-dione]
55 nM	Cc1c(Cn2nc[nH]c2=O)sc2c1c(=O)n(C(C)C)c(=O)n2CCCF [Example 423, 1-(3-Fluoropropyl)-3-isopropyl-5-methyl-6-[(5-oxo-4,5-dihydro-1H-1,2,4-triazol-1-yl)methyl]thieno[2,3-d]pyrimidine-2,4(1H,3H)-dione]
37 nM	Cc1c(Cn2nc[nH]c2=O)sc2c1c(=O)n(CC(C)(C)C)c(=O)n2CCC(F)(F)F [Example 427, 3-(2,2-Dimethylpropyl)-5-methyl-6-[(5-oxo-4,5-dihydro-1H-1,2,4-triazol-1-yl)methyl]-1-(3,3,3-trifluoropropyl)thieno[2,3-d]pyrimidine-2,4(1H,3H)-dione]
120 nM	COCCn1c(=O)n(CC(C)(C)C)c(=O)c2c(C)c(Cn3nc[nH]c3=O)sc21 [Example 428, 3-(2,2-Dimethylpropyl)-1-(2-methoxyethyl)-5-methyl-6-[(5-oxo-4,5-dihydro-1H-1,2,4-triazol-1-yl)methyl]thieno[2,3-d]pyrimidine-2,4(1H,3H)-dione]
92 nM	Cc1c(Cn2nc[nH]c2=O)sc2c1c(=O)n(CC(F)(F)F)c(=O)n2CCC(F)(F)F [Example 432, 5-Methyl-6-[(5-oxo-4,5-dihydro-1H-1,2,4-triazol-1-yl)methyl]-3-(2,2,2-trifluoroethyl)-1-(3,3,3-trifluoropropyl)thieno[2,3-d]pyrimidine-2,4(1H,3H)-dione]
58 nM	COCCn1c(=O)n(CC(F)(F)F)c(=O)c2c(C)c(Cn3nc[nH]c3=O)sc21 [Example 433, 1-(2-Methoxyethyl)-5-methyl-6-[(5-oxo-4,5-dihydro-1H-1,2,4-triazol-1-yl)methyl]-3-(2,2,2-trifluoroethyl)thieno[2,3-d]pyrimidine-2,4(1H,3H)-dione]
180 nM	COCCn1c(=O)c2c(C)c(Cn3nc[nH]c3=O)sc2n(CCC(F)(F)F)c1=O [Example 439, 3-(2-Methoxyethyl)-5-methyl-6-[(5-oxo-4,5-dihydro-1H-1,2,4-triazol-1-yl)methyl]-1-(3,3,3-trifluoropropyl)thieno[2,3-d]pyrimidine-2,4(1H,3H)-dione]
7.4 nM	Cc1c(CN2CCNC2=NC#N)sc2c1c(=O)n(CC(C)(C)C)c(=O)n2CCC(F)(F)F [Example 443, [1-{[3-(2,2-Dimethylpropyl)-5-methyl-2,4-dioxo-1-(3,3,3-trifluoropropyl)-1,2,3,4-tetrahydrothieno[2,3-d]pyrimidin-6-yl]methyl}imidazolidin-2-ylidene]cyanamide]
11 nM	Cc1c(CN2CCNC2=NC#N)sc2c1c(=O)n(CC(C)(C)C)c(=O)n2CCCF [Example 444, [1-{[3-(2,2-Dimethylpropyl)-1-(3-fluoropropyl)-5-methyl-2,4-dioxo-1,2,3,4-tetrahydrothieno[2,3-d]pyrimidin-6-yl]methyl}imidazolidin-2-ylidene]cyanamide]
12 nM	COCCn1c(=O)n(CC(C)(C)C)c(=O)c2c(C)c(CN3CCNC3=NC#N)sc21 [Example 445, [1-{[3-(2,2-Dimethylpropyl)-1-(2-methoxyethyl)-5-methyl-2,4-dioxo-1,2,3,4-tetrahydrothieno[2,3-d]pyrimidin-6-yl]methyl}imidazolidin-2-ylidene]cyanamide]
72 nM	CCOCCn1c(=O)c2c(C)c(CN3CCNC3=NC#N)sc2n(CCCF)c1=O [Example 453, [1-{[3-(2-Ethoxyethyl)-1-(3-fluoropropyl)-5-methyl-2,4-dioxo-1,2,3,4-tetrahydrothieno[2,3-d]pyrimidin-6-yl]methyl}imidazolidin-2-ylidene]cyanamide]
